Results taken from patent US7468253B2, “Method for multiple chemokine receptor screening for antagonists using RAM assay” (Chemocentryx, Inc., priority 2001, dated 2008).

Legend:
[1] = target: T1, CCR2 (Homo sapiens, UniProt P41597); experiment: Conventional cell migration assay, MCP-1 dose response in THP-1 cells; assay type: cell-based; details: 90 minutes, FIG. 10
T1 construct: THP-1 cells expressing cell surface CCR1 and CCR2; host or cells: THP-1 (human monocytic)
T1 sequence (P41597 1-360 isoform P41597-2): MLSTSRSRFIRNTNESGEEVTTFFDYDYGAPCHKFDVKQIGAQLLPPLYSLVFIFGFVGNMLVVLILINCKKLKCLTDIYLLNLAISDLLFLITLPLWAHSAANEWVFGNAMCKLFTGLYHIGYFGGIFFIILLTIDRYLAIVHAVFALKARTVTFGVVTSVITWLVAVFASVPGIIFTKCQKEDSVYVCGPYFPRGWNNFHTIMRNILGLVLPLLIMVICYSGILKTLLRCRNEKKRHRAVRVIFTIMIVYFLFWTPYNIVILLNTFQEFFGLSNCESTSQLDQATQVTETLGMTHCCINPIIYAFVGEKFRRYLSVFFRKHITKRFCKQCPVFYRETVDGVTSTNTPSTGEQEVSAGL
Protocol: (§1) To obtain a dose response curve for THP-1 cells expressing cell surface CCR1 and CCR2, a conventional cell migration assay was used (Bacon et al., 1988; Penfold et al., 1999). Cells were harvested by centrifugation and then resuspended in cell migration buffer (Hank's balanced salt solution (HBSS)/0.1% bovine serum albumin (BSA)) at 0.1×10^6 cells per well. The CCR1 and CCR2 ligands MIP-1α and MCP-1, respectively, were prepared in the concentration series (10 nM to 10 μM) by serial dilution in cell migration buffer. At low concentrations, MIP-1α and MCP-1 activate cell migration of CCR1 and CCR2 bearing activated cells, respectively.
(§2) MIP-1α and MCP-1 were loaded in the bottom chamber of a ChemoTx® cell migration apparatus (5 μm pore polycarbonate polyvinylpyrrolidone-coated filters (Neuroprobe; Gaithersburg, Md.); 29 μl/well) and 20 μl of cell suspension (100K cell per well) was placed in the upper chamber. The cells were incubated at 37° C. for 90 minutes. The assay was terminated by removing the cells from the upper chamber and membrane surface using a rubber scraper. The cells that migrated to the lower chamber were quantified by CyQuant assay (Molecular Probes; Eugene, Oreg.), a fluorescent dye method that measures nucleic acid content. […]

[2] = system: THP-1 cells; experiment: Effect of full RAM concentration of MCP-1 on MIP-1α-induced migration; assay type: cell-based, human; details: 100 nM MCP-1, THP-1 cells, FIG. 11B
Protocol: An effect of 100 nM of MCP-1 on MIP-1α was studied by comparing migration levels of THP-1 cells as activated by MIP-1α with THP-1 cell migration levels as activated by incubation with MIP-1α and 100 nM MCP-1.
(§3) 100 nM MCP-1 with MIP-1α at various concentrations were loaded in the bottom chamber of a ChemoTx® cell migration apparatus (5 μm pore polycarbonate polyvinylpyrrolidone-coated filters (Neuroprobe; Gaithersburg, Md.); 29 μl/well) and 20 μl of cell suspension (100K cell per well) was placed in the upper chamber. The cells were incubated at 37° C. for 90 minutes. The assay was terminated by removing the cells from the upper chamber and membrane surface using a rubber scraper. The cells that migrated to the lower chamber were quantified by CyQuant assay (Molecular Probes; Eugene, Oreg.), a fluorescent dye method that measures nucleic acid content.

[3] = target: T2, CCR1 (Homo sapiens, UniProt P32246); experiment: Conventional cell migration assay, MIP-1α dose response in THP-1 cells; assay type: cell-based; details: 90 minutes, FIG. 10
T2 construct: THP-1 cells expressing cell surface CCR1 and CCR2; host or cells: THP-1 (human monocytic)
T2 sequence (P32246 1-355): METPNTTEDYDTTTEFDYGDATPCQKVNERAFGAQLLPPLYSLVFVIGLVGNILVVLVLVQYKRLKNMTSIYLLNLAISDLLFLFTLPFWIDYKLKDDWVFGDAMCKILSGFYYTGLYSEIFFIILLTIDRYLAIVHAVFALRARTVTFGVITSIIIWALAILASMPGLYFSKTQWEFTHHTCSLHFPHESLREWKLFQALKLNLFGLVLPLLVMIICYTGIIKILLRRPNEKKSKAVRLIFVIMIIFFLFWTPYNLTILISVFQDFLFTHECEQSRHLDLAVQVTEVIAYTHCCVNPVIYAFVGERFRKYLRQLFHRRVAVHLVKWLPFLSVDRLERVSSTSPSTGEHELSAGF
Protocol: as §1, §2

[4] = system: THP-1 cells; experiment: Effect of full RAM concentration of MIP-1α on MCP-1-induced migration; assay type: cell-based, human; details: 100 nM MIP-1α, FIG. 11A
Protocol: An effect of 100 nM of MIP-1α on MCP-1 was studied by comparing migration levels of THP-1 cells as activated by MCP-1 with THP-1 cell migration levels as activated by incubation with MCP-1 and 100 nM MIP-1α.
as §3, with “nM MIP-1α with” for “nM”, “MCP-1” for “MCP-1 with MIP-1α”

[5] = target: T3, CXCR4 (Homo sapiens, UniProt P61073); experiment: Conventional cell migration assay, SDF-1α dose response (determining inhibitory concentration); assay type: cell-based; details: CXCR4-bearing activated lymphocytes, 150 minutes
T3 construct: endogenous in cells
Protocol: To obtain a dose response curve for activated lymphocytes expressing cell surface CXCR4, a conventional cell migration assay was used (Bacon et al., 1988; Penfold et al., 1999). The activated lymphocytes were prepared by culturing lymphocytes in the presence of interleukin-2 (IL-2) and phytohemeagglutinin (PHA). To isolate peripheral blood lymphocytes (i.e., a thin layer of white blood cells called the buffy coat), blood samples from the Stanford blood center were centrifuged for 10 minutes at 1200 rpm leaving a concentrated fraction containing predominantly white blood cellular fraction. Next, peripheral blood mononuclear cells (PBMC) were prepared by the standard Ficoll-Pague (Amersham Biosciences) gradient centrifugation method. Following the centrifugation, PBMC were removed and resuspended in MACS (Dulbecco's Phosphate Buffered Saline, DPBS; 1% Bovine Serum Albumin, BSA) buffer. After removal of the PMBCs, the monocytes were separated by a CD14 positive selection column mounted on an AutoMac (Multenyi Biotech). […]
The CXCR4 ligand stromal-derived factor (SDF-1α) was prepared in a concentration series (0.1 nM to […]) by serial dilution in cell migration buffer. […] The cells that migrated to the lower chamber were quantified by the CyQuant assay (Molecular Probes; Eugene, Oreg.), a fluorescent dye method that measures nucleic acid content. […]

T3 sequence (P61073 whole entry): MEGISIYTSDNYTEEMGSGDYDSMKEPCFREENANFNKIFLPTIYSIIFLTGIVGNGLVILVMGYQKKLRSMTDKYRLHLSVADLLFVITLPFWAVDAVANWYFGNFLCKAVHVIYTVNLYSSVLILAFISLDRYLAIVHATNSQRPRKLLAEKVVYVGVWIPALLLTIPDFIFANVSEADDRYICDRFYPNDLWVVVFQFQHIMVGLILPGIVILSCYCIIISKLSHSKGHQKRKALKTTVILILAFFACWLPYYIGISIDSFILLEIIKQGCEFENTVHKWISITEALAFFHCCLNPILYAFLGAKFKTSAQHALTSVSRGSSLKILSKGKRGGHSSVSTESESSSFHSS

MCP-1: CCR2 ligand, chemokine purchased from PeproTech
concentration determined to be completely inhibitory for cell migration [1]: 150 nM | effect on MIP-1α-induced cell migration [2]: no significant effect

MIP-1α: CCR1 ligand, chemokine purchased from PeproTech
concentration determined to be completely inhibitory for cell migration [3]: 150 nM | effect on MCP-1-induced cell migration [4]: no significant effect

SDF-1α
concentration determined to be completely inhibitory for cell migration [5]: 1 µM
